Experimental data: US9278962B2 (Cytokinetics, Inc., priority 2011, dated 2016)

Tested on: rabbit skeletal myofibrils (approximately 90% fast fibers)
Assay: Activation of fast skeletal myofibrils (PUMA coupled-enzyme ATPase assay, AC1.4)
Format: biochemical
Conditions: concentration at which the compound increased enzymatic activity by 40%, calcium at pCa25

Mean AC1.4 (Table 2)	SMILES	further results
C (C=10-20 uM)	Clc1ccc(Cc2nsc(NCCc3ccc(Cl)c(Cl)c3)n2)cc1 [[2-(3,4-dichlorophenyl)ethyl]{3-[(4-chlorophenyl)methyl](1,2,4-thiadiazol-5-yl)}amine]	
D (D=>20 uM)	Fc1ccc(Cc2nsc(Nc3ccc(Cl)c(Cl)c3)n2)cc1 [(3,4-dichlorophenyl){3-[(4-fluorophenyl)methyl](1,2,4-thiadiazol-5-yl)}amine]	
D (D=>20 uM)	COc1cccc(C(C)c2nsc(N(C)CC(C)(C)c3ccc(F)cc3)n2)c1 (centres unmarked) [[2-(4-fluorophenyl)-2-methylpropyl]{3-[(3-methoxyphenyl)ethyl](1,2,4-thiadiazol-5-yl)}methylamine]	
B (B=1-10 uM)	CC(C)(CNc1nc(-c2ccccn2)ns1)c1ccc(F)cc1 [[2-(4-fluorophenyl)-2-methylpropyl](3-(2-pyridyl)(1,2,4-thiadiazol-5-yl))amine]	
D (D=>20 uM)	Clc1ccc(CNc2nc(Cc3ccc(Cl)cc3)ns2)cc1 [[(4-chlorophenyl)methyl]{3-[(4-chlorophenyl)methyl](1,2,4-thiadiazol-5-yl)}amine]	

The remaining lines, values behind:

SMILES	Mean AC1.4 (Table 2)	further results
CC(C)(CNc1nc(CCC(=O)N2CC[C@@H](O)C2)ns1)c1ccc(F)cc1 [1-((3R)-3-hydroxypyrrolidinyl)-3-(5-{[2-(4-fluorophenyl)-2-methylpropyl]amino}(1,2,4-thiadiazol-3-yl))propan-1-one]	D (D=>20 uM)	
NC(=O)c1cccc(-c2nsc(NCCCc3ccccc3)n2)c1 [3-{5-[(3-phenylpropyl)amino]-1,2,4-thiadiazol-3-yl}benzamide]	D (D=>20 uM)	
CC(C)(CNc1nc(Cc2ccc(O)cc2)ns1)c1ccc(F)cc1 [4-[(5-{[2-(4-fluorophenyl)-2-methylpropyl]amino}-1,2,4-thiadiazol-3-yl)methyl]phenol]	A (A=<1 uM)	
C[C@H](CNc1nc(-c2cccc(C(N)=O)c2)ns1)c1ccc(F)cc1 [3-(5-{[(2S)-2-(4-fluorophenyl)propyl]amino}-1,2,4-thiadiazol-3-yl)benzamide]	A (A=<1 uM)	
NC(=O)c1cccc(-c2nc(NCCCc3ccccc3)ns2)c1 [3-(3-(3-phenylpropylamino)-1,2,4-thiadiazol-5-yl)benzamide]	D (D=>20 uM)	
N#Cc1cccc(-c2nnc(NC[C@]3(c4ncccc4F)C[C@H](F)C3)s2)c1 [3-(5-(((trans)3-fluoro-1-(3-fluoropyridin-2-yl)cyclobutyl)methylamino)-1,3,4-thiadiazol-2-yl)benzonitrile]		Mean AC1.4 (Table 3): B (B=1-10 uM)
CC(C)(CNc1nc2cccc(C(N)=O)c2s1)c1ccc(F)cc1 [2-(2-(4-fluorophenyl)-2-methylpropylamino)benzo[d] thiazole-7-carboxamide]		Mean AC1.4 (Table 4): B (B=1-10 uM)
Fc1cccnc1C1(CNc2nnc(-c3ccccc3)s2)CCC1 [N-((1-(3-fluoropyridin-2-yl)cyclobutyl)methyl)-5-phenyl-1,3,4-thiadiazol-2-amine]		Mean AC1.4 (Table 3): A (A=<1 uM)
CC(Nc1nc(-c2cccc(C(N)=O)c2)ns1)C(=O)c1ccc(F)cc1 (centres unmarked) [3-(5-{[2-(4-fluorophenyl)-1-methyl-2-oxoethyl]amino}-1,2,4-thiadiazol-3-yl)benzamide]	C (C=10-20 uM)	
CC(C)(CNc1nc2c(Cl)cccc2s1)c1ccc(F)cc1 [4-chloro-N-(2-(4-fluorophenyl)-2-methylpropyl)benzo[d]thiazol-2-amine]		Mean AC1.4 (Table 4): A (A=<1 uM)
N#Cc1ccc(F)c(-c2nnc(NC[C@]3(c4ncccc4F)C[C@H](F)C3)s2)c1 [4-fluoro-3-(5-((3-fluoro-1-(3-fluoropyridin-2-yl)cyclobutyl)methylamino)-1,3,4-thiadiazol-2-yl)benzonitrile]		Mean AC1.4 (Table 3): B (B=1-10 uM)
N#Cc1cccc(-c2nsc(NCC(=O)C3CCCCN3)n2)c1 (centres unmarked) [3-{5-[(2-oxo-2-piperidylethyl)amino]-1,2,4-thiadiazol-3-yl}benzenecarbonitrile]	D (D=>20 uM)	
NC(=O)c1ccc(F)c(-c2nnc(NCC3(c4ncccc4F)CCC3)s2)c1 [4-fluoro-3-(5-((1-(3-fluoropyridin-2-yl)cyclobutyl)methylamino)-1,3,4-thiadiazol-2-yl)benzamide]		Mean AC1.4 (Table 3): A (A=<1 uM)
Fc1cccnc1C1(CNc2nnc(-c3ccccc3Cl)s2)CCC1 [5-(2-chlorophenyl)-N-((1-(3-fluoropyridin-2-yl)cyclobutyl)methyl)-1,3,4-thiadiazol-2-amine]		Mean AC1.4 (Table 3): A (A=<1 uM)
N#Cc1ccccc1-c1nnc(NCC2(c3ncccc3F)CCC2)s1 [2-(5-((1-(3-fluoropyridin-2-yl)cyclobutyl)methylamino)-1,3,4-thiadiazol-2-yl)benzonitrile]		Mean AC1.4 (Table 3): B (B=1-10 uM)
N#Cc1ccc2nc(NCC3(c4ccccn4)CCC3)sc2c1 [2-((1-(pyridin-2-yl)cyclobutyl)methylamino)benzo[d] thiazole-6-carbonitrile]		Mean AC1.4 (Table 4): C (C=10-20 uM)
CC(C)(CNc1nc(-c2cccc(C(N)=O)c2)ns1)c1ccc(F)cc1 [3-(5-{[2-(4-fluorophenyl)-2-methylpropyl]amino}-1,2,4-thiadiazol-3-yl)benzamide]	A (A=<1 uM)	
CC(C)(O)CCc1nsc(NCC(C)(C)c2ccc(F)cc2)n1 [4-(5-{[2-(4-fluorophenyl)-2-methylpropyl]amino}(1,2,4-thiadiazol-3-yl))-2-methylbutan-2-ol]	B (B=1-10 uM)	
CC(C)(Nc1nnc(-c2cc(Br)ccc2F)o1)c1ccc(F)cc1 [5-(5-bromo-2-fluorophenyl)-N-(2-(4-fluorophenyl)propan-2-yl)-1,3,4-oxadiazol-2-amine]		Mean AC1.4 (Table 5): B (B=1-10 uM)
Cc1cc(NC(=O)C2(c3ncccc3F)CCC2)nn1-c1ccccc1 [1-(3-fluoropyridin-2-yl)-N-(5-methyl-1-phenyl-1H-pyrazol-3-yl)cyclobutanecarboxamide]		Mean AC1.4 (Table 5): D (D=>20 uM)
NC(=O)c1cccc(-c2nnc(NC[C@]3(c4ncccc4F)C[C@@H](F)C3)s2)c1 [3-(5-(((cis)-3-fluoro-1-(3-fluoropyridin-2-yl)cyclobutyl)methylamino)-1,3,4-thiadiazol-2-yl)benzamide]		Mean AC1.4 (Table 3): B (B=1-10 uM)
